According to US8008329B2 (Dong Wha Pharmaceutical Co., Ltd., priority 2008, dated 2011):
Marks after values point to notes of the source that are not given here.

System: osteoclast differentiation
Assay: Osteoclast differentiation in co-culture of mouse bone marrow cells and ST2 cells, TRAP staining (Examples 8-9)
Type: cell-based
Conditions: for % number of osteoclast (vs. solvent control group): day 7; for activity at 0.1 µM: Mus musculus, Osteoclast, 168 h, day 7, read-out: % number of osteoclast (vs. solvent control group)
Summary of the method: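 Readout was TRAP-positive multinucleated (≥6 nuclei) cells on day 7, reported as % of 0.1% DMSO control, mean±SD of 4 wells. Cells were mouse (male ddY) bone marrow plus ST2 co-cultures driven by 10^−8 M vitamin D3/dexamethasone. Benzamidines, alendronic acid or risedronic acid were added at 0.1 μM alone or combined, with media renewed days 3 and 5.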

[1] = Combination treatment (alendronic acid + compounds), 0.1 μM each
[2] = Combination treatment (risedronic acid + compounds), 0.1 μM each
[3] = Individual treatment (compounds), 0.1 μM

Structure (SMILES): CCN(CCO)c1nc(-c2ccc(OCCCCCOc3ccc(C(=N)NO)cc3)cc2)c(C)s1 [Compound 121, N-hydroxy-4-[5-(4-{2-[ethyl-(2-hydroxyethyl) -amino]-5-methyl-1,3-thiazol-4-yl}phenoxy)pentyloxy]-benzamidine]
- % number of osteoclast (vs. solvent control group) [1]: 55 ± 11.1^ab %
- % number of osteoclast (vs. solvent control group) [2]: 39 ± 5.7^ac %
- activity at 0.1 µM [3]: 95 ± 3.9%

Structure (SMILES): CN(C)CCc1sc(C2CCCCC2)nc1-c1ccc(OCCCCCOc2ccc(C(=N)NO)cc2)cc1 [Compound 250, N-hydroxy-4-(5-{4-[2-cyclohexyl-5-(2-dimethylamino-ethyl)-thiazol-4-yl]-phenoxy}-pentyloxy)-benzamidine]
- % number of osteoclast (vs. solvent control group) [1]: 45 ± 5.2^b %
- % number of osteoclast (vs. solvent control group) [2]: 12 ± 1.4^ac %
- activity at 0.1 µM [3]: 52 ± 7.2%

Structure (SMILES): CCc1sc(NCCOC)nc1-c1ccc(OCCCCCOc2ccc(C(=N)NO)cc2)cc1 [Compound 102, N-hydroxy-4-{5-[4-(5-ethyl-2-(2-methoxyethyl)amino-1,3-thiazol-4-yl)phenoxy]pentyloxy}-benzamidine]
- % number of osteoclast (vs. solvent control group) [1]: 37 ± 3.6^b %
- % number of osteoclast (vs. solvent control group) [2]: 21 ± 2.6^ac %
- activity at 0.1 µM [3]: 47 ± 4%

Structure (SMILES): CC(C)c1nc(-c2ccc(OCCCCCOc3ccc(C(=N)NO)cc3)cc2)c(CC2CCCC2)s1 [Compound 47, N-hydroxy-4-{5-[4-(5-cyclopentylmethyl-2-isopropyl-1,3-thiazol-4-yl)phenoxy]pentyloxy}-benzamidine]
- % number of osteoclast (vs. solvent control group) [1]: 42 ± 4.6^b %
- % number of osteoclast (vs. solvent control group) [2]: 32 ± 3.0^ac %
- activity at 0.1 µM [3]: 57 ± 7.9%

Structure (SMILES): N=C(NO)c1ccc(OCCCCCOc2ccc(-c3nc(N4CCOCC4)sc3C3CCCC3)cc2)cc1 [Compound 172, N-hydroxy-4-{5-[4-(5-cyclopentyl-2-morpholin-4-yl-1,3-thiazol-4-yl)phenoxy]pentyloxy}-benzamidine]
- % number of osteoclast (vs. solvent control group) [1]: 33 ± 5.3^ab %
- % number of osteoclast (vs. solvent control group) [2]: 26 ± 5.1^a %
- activity at 0.1 µM [3]: 57 ± 5.1%

Structure (SMILES): CN(Cc1cccnc1)c1nc(-c2ccc(OCCCCCOc3ccc(C(=N)NO)cc3)cc2)c(CN2CCOCC2)s1 [Compound 321, N-hydroxy-4-(5-{4-[2-(methyl-pyridin-3-ylmethyl-amino)-5-morpholin-4-ylmethyl-thiazol-4-yl]-phenoxy}-pentyloxy)-benzamidine]
- % number of osteoclast (vs. solvent control group) [1]: 19 ± 4.1^ab %
- % number of osteoclast (vs. solvent control group) [2]: 18 ± 3.0^ac %
- activity at 0.1 µM [3]: 48 ± 7%

Structure (SMILES): CNc1nc(-c2ccc(OCCCCCOc3ccc(C(=N)NO)cc3)cc2)c(CC2CCCC2)s1 [Compound 109, N-hydroxy-4-{5-[4-(5-cyclopentylmethyl-2-methylamino-1,3-thiazol-4-yl)phenoxy]pentyloxy}-benzamidine]
- % number of osteoclast (vs. solvent control group) [1]: 49 ± 9.8^b %
- % number of osteoclast (vs. solvent control group) [2]: 30 ± 6.5^ac %
- activity at 0.1 µM [3]: 60 ± 9.6%

Structure (SMILES): Cc1nc(-c2ccc(OCCCCCOc3ccc(C(=N)NO)cc3)cc2)c(CCNCCCn2ccnc2)s1 [Compound 218, N-hydroxy-4-[5-(4-{5-[2-(3-imidazol-1-yl-propylamino)-ethyl]-2-methyl-thiazol-4-yl}-phenoxy)-pentyloxy]-benzamidine]
- % number of osteoclast (vs. solvent control group) [1]: 39 ± 10.4^b %
- % number of osteoclast (vs. solvent control group) [2]: 25 ± 7.5^ac %
- activity at 0.1 µM [3]: 56 ± 1.9%

Structure (SMILES): CCc1sc(N2CCN(C)CC2)nc1-c1ccc(OCCCCCOc2ccc(C(=N)NO)cc2)cc1 [Compound 174, N-hydroxy-4-{5-(4-[5-ethyl-2-(4-methylpiperazino)-1,3-thiazol-4-yl]phenoxy)pentyloxy}-benzamidine]
- % number of osteoclast (vs. solvent control group) [1]: 46 ± 2.6^ab %
- % number of osteoclast (vs. solvent control group) [2]: 35 ± 5.1^ac %
- activity at 0.1 µM [3]: 70 ± 2.5%

Structure (SMILES): Cc1nc(-c2ccc(OCCCCCOc3ccc(C(=N)NO)cc3)cc2)c(CCN2CCSCC2)s1 [Compound 228, N-hydroxy-4-(5-{4-[2-methyl-5-(2-thiomorpholin-4-yl-ethyl)-thiazol-4-yl]-phenoxy}-pentyloxy)-benzamidine]
- % number of osteoclast (vs. solvent control group) [1]: 31 ± 4.8^ab %
- % number of osteoclast (vs. solvent control group) [2]: 20 ± 5.8^ac %
- activity at 0.1 µM [3]: 49 ± 3.5%

Structure (SMILES): CCc1sc(N(CC)CCN2CCOCC2)nc1-c1ccc(OCCCCCOc2ccc(C(=N)NO)cc2)cc1 [Compound 132, N-hydroxy-4-[5-(4-{5-ethyl-2-[ethyl-(2-morpholinoethyl)-amino]-1,3-thiazol-4-yl}phenoxy)pentyloxy]-benzamidine]
- % number of osteoclast (vs. solvent control group) [1]: 37 ± 8.3^ab %
- % number of osteoclast (vs. solvent control group) [2]: 30 ± 3.4^ac %
- activity at 0.1 µM [3]: 62 ± 7.7%

Structure (SMILES): CCCN1CCC(c2nc(-c3ccc(OCCCCCOc4ccc(C(=N)NO)cc4)cc3)c(C)s2)CC1 [Compound 72, N-hydroxy-4-{5-[4-(5-methyl-2-(1-propyl-piperidin-4-yl)-1,3-thiazol-4-yl)phenoxy]pentyloxy}-benzamidine]
- % number of osteoclast (vs. solvent control group) [1]: 30 ± 4.0^ab %
- % number of osteoclast (vs. solvent control group) [2]: 12 ± 3.2^ac %
- activity at 0.1 µM [3]: 63 ± 1.1%

Structure (SMILES): CN1CCN(CCc2sc(N3CCOCC3)nc2-c2ccc(OCCCCCOc3ccc(C(=N)NO)cc3)cc2)CC1 [Compound 274, N-hydroxy-4-[5-(4-{5-[2-(4-methyl-piperazin-1-yl)-ethyl]-2-morpholin-4-yl-thiazol-4-yl}-phenoxy)-pentyloxy]-benzamidine]
- % number of osteoclast (vs. solvent control group) [1]: 31 ± 2.9^ab %
- % number of osteoclast (vs. solvent control group) [2]: 13 ± 1.3^ac %
- activity at 0.1 µM [3]: 65 ± 8.9%

Structure (SMILES): CCc1nc(-c2ccc(OCCCCCOc3ccc(C(=N)NO)cc3)cc2)c(CC2CCCC2)s1 [Compound 46, N-hydroxy-4-{5-[4-(5-cyclopentylmethyl-2-ethyl-1,3-thiazol-4-yl)phenoxy]pentyloxy}-benzamidine]
- % number of osteoclast (vs. solvent control group) [1]: 36 ± 5.1^ab %
- % number of osteoclast (vs. solvent control group) [2]: 31 ± 8.5^ac %
- activity at 0.1 µM [3]: 71 ± 9.4%

Structure (SMILES): CCCCNCc1sc(C)nc1-c1ccc(OCCCCCOc2ccc(C(=N)NO)cc2)cc1 [Compound 298, N-hydroxy-4-{5-[4-(5-butylaminomethyl-2-methyl-thiazol-4-yl)-phenoxy]-pentyloxy}-benzamidine]
- % number of osteoclast (vs. solvent control group) [1]: 16 ± 3.3^ab %
- % number of osteoclast (vs. solvent control group) [2]: 8 ± 2.9^ac %
- activity at 0.1 µM [3]: 55 ± 6.1%

Structure (SMILES): C=Cc1sc(N)nc1-c1ccc(OCCCCCOc2ccc(C(=N)NO)cc2)cc1 [Compound 78, N-hydroxy-4-{5-[4-(5-vinyl-2-amino-1,3-thiazol-4-yl)phenoxy]pentyloxy}-benzamidine]
- % number of osteoclast (vs. solvent control group) [1]: 36 ± 4.2^ab %
- % number of osteoclast (vs. solvent control group) [2]: 20 ± 1.7^a %
- activity at 0.1 µM [3]: 67 ± 2.1%

Structure (SMILES): Cc1nc(-c2ccc(OCCCCCOc3ccc(C(=N)NO)cc3)cc2)c(CN2CCCC2)s1 [Compound 304, N-hydroxy-4-{5-[4-(2-methyl-5-pyrolidin-1-ylmethyl-thiazol-4-yl)-phenoxy]-pentyloxy}-benzamidine]
- % number of osteoclast (vs. solvent control group) [1]: 27 ± 6.4^ab %
- % number of osteoclast (vs. solvent control group) [2]: 16 ± 4.5^ac %
- % number of osteoclast (vs. solvent control group) [3]: 54 ± 6.4%

Structure (SMILES): CCCNc1nc(-c2ccc(OCCCCCOc3ccc(C(=N)NO)cc3)cc2)c(CC2CCCC2)s1 [Compound 111, N-hydroxy-4-{5-[4-(5-cyclopentylmethyl-2-propylamino-1,3-thiazol-4-yl)phenoxy]pentyloxy}-benzamidine]
- % number of osteoclast (vs. solvent control group) [1]: 51 ± 6.0%
- % number of osteoclast (vs. solvent control group) [2]: 32 ± 5.2^ac %
- activity at 0.1 µM [3]: 76 ± 12.2%

Structure (SMILES): N=C(NO)c1ccc(OCCCCCOc2ccc(-c3nc(N4CCOCC4)sc3CCN3CCSCC3)cc2)cc1 [Compound 273, N-hydroxy-4-(5-{4-[2-morpholin-4-yl-5-(2-thiomorpholin-4-yl-ethyl)-thiazol-4-yl]-phenoxy}-pentyloxy)-benzamidine]
- % number of osteoclast (vs. solvent control group) [1]: 25 ± 4.5^ab %
- % number of osteoclast (vs. solvent control group) [2]: 11 ± 2.9^ac %
- activity at 0.1 µM [3]: 53 ± 3.4%

Structure (SMILES): C=Cc1sc(C)nc1-c1ccc(OCCCCCOc2ccc(C(=N)NO)cc2)cc1 [Compound 74, N-hydroxy-4-{5-[4-(5-vinyl-2-methyl-1,3-thiazole-4-yl)phenoxy]pentyloxy}-benzamidine]
- % number of osteoclast (vs. solvent control group) [1]: 36 ± 4.3^ab %
- % number of osteoclast (vs. solvent control group) [2]: 28 ± 5.4^ac %
- activity at 0.1 µM [3]: 60 ± 0.7%

Structure (SMILES): Cc1nc(-c2ccc(OCCCCCOc3ccc(C(=N)NO)cc3)cc2)c(CCNC(C)(C)C)s1 [Compound 234, N-hydroxy-4-(5-{4-[5-(2-tert-butylamino-ethyl)-2-methyl-thiazol-4-yl]-phenoxy}-pentyloxy)-benzamidine]
- % number of osteoclast (vs. solvent control group) [1]: 30 ± 6.1^b %
- % number of osteoclast (vs. solvent control group) [2]: 22 ± 4.0^ac %
- activity at 0.1 µM [3]: 44 ± 7.5%

Structure (SMILES): Cc1sc(NC(=O)C(C)C)nc1-c1ccc(OCCCCCOc2ccc(C(=N)NO)cc2)cc1 [Compound 69, N-hydroxy-4-{5-[4-(2-(isobutyryl)amino-5-methyl-1,3-thiazol-4-yl)phenoxy]pentyloxy}-benzamidine]
- % number of osteoclast (vs. solvent control group) [1]: 49 ± 7.8^ab %
- % number of osteoclast (vs. solvent control group) [2]: 44 ± 1.4^ac %
- activity at 0.1 µM [3]: 80 ± 11.6%

Structure (SMILES): N=C(NO)c1ccc(OCCCCCOc2ccc(-c3nc(N4CCOCC4)sc3CN3CCOCC3)cc2)cc1 [Compound 336, N-hydroxy-4-{5-[4-(2-morpholin-4-yl-5-morpholin-4-ylmethyl-thiazol-4-yl)-phenoxy]-pentyloxy}-benzamidine]
- % number of osteoclast (vs. solvent control group) [1]: 22 ± 3.2^ab %
- % number of osteoclast (vs. solvent control group) [2]: 16 ± 3.0^ac %
- activity at 0.1 µM [3]: 52 ± 4%

Structure (SMILES): CCCNc1nc(-c2ccc(OCCCCCOc3ccc(C(=N)NO)cc3)cc2)c(C)s1 [Compound 88, N-hydroxy-4-{5-[4-(5-methyl-2-propylamino-1,3-thiazol-4-yl)phenoxy]pentyloxy}-benzamidine]
- % number of osteoclast (vs. solvent control group) [1]: 61 ± 11.7%
- % number of osteoclast (vs. solvent control group) [2]: 29 ± 4.7^ac %
- activity at 0.1 µM [3]: 63 ± 7.6%
